One test deals with MCF7. Description: Cytotoxicity against human MCF7 cells assessed as reduction in cell viability after 48 hrs by MTT assay. It is filed as functional, cell-based. Particulars: MCF7, 48 h. (Formazan colour is commonly taken as a measure of viable cells.)
Test [1] concerns HeLa. Description: Cell cycle arrest in human HeLa cells assessed as accumulation at G2/M phase at 10 uM after 24 hrs by propidium iodide staining based flow cytometry (reference value: 9.89%). It is filed as functional.
Test [2] concerns HeLa. The test can be described thus: Cell cycle arrest in human HeLa cells assessed as accumulation at S phase at 5 uM after 24 hrs by propidium iodide staining based flow cytometry (reference value: 23.69%). It is filed as functional. On the technique in general: Flow cytometry measures light scatter and fluorescence of single cells or particles in a stream.
Test [3] deals with HeLa. Description: Induction of apoptosis in human HeLa cells assessed as late apoptotic cells at 10 uM after 24 hrs by Annexin-V FITC/propidium iodide staining based flow cytometry (reference value: 0.29%). The test is classed as functional.
For test [4], the system named is HeLa. The test can be described thus: Induction of apoptosis in human HeLa cells after 24 hrs by Annexin-V FITC/propidium iodide staining based flow cytometry. The test is classed as functional, cell-based.
Test [5] has as its system HeLa. The test can be described thus: Cell cycle arrest in human HeLa cells assessed as accumulation at S phase after 24 hrs by propidium iodide staining based flow cytometry. It is filed as functional.
Test [6] deals with HeLa. Description: Cytotoxicity against human HeLa cells assessed as reduction in cell viability after 48 hrs by MTT assay. The test is classed as functional, cell-based.
The test system of test [7] is HeLa. The test can be described thus: Cell cycle arrest in human HeLa cells assessed as accumulation at G2/M phase at 5 uM after 24 hrs by propidium iodide staining based flow cytometry (reference value: 9.89%). The test is classed as functional.
The test system of test [8] is HeLa. Description: Induction of apoptosis in human HeLa cells assessed as late apoptotic cells at 5 uM after 24 hrs by Annexin-V FITC/propidium iodide staining based flow cytometry (reference value: 0.29%). The test is classed as functional.
The subject of test [9] is HeLa. Description: Induction of apoptosis in human HeLa cells assessed as early apoptotic cells at 5 uM after 24 hrs by Annexin-V FITC/propidium iodide staining based flow cytometry (reference value: 2.36%). It is filed as functional.
Test [10] deals with HeLa. Description: Cell cycle arrest in human HeLa cells assessed as accumulation at S phase at 10 uM after 24 hrs by propidium iodide staining based flow cytometry (reference value: 23.69%). The test is classed as functional.
In test [11] the test system is HeLa. Description: Induction of apoptosis in human HeLa cells assessed as crescent shaped cell masses at 5 to 10 uM after 24 hrs by […] staining based fluorescence microscopic method. It is filed as functional.
In test [12] the test system is HeLa. The test can be described thus: Induction of apoptosis in human HeLa cells assessed as live cells at 5 uM after 24 hrs by Annexin-V FITC/propidium iodide staining based flow cytometry (reference value: 95.5%). It is filed as functional.
Test [13] relates to HeLa. Description: Induction of apoptosis in human HeLa cells assessed as early apoptotic cells at 10 uM after 24 hrs by Annexin-V FITC/propidium iodide staining based flow cytometry (reference value: 2.36%). The test is classed as functional.
Test [14] concerns HeLa. Description: Induction of apoptosis in human HeLa cells assessed as necrotic cells at 5 uM after 24 hrs by Annexin-V FITC/propidium iodide staining based flow cytometry (reference value: 1.81%). The test is classed as functional.
In test [15] the test system is HeLa. Description: Induction of apoptosis in human HeLa cells assessed as chromatin condensation after 24 hrs by acridine orange/ethidium bromide staining based fluorescence confocal microscopic method. The test is classed as functional, cell-based.
For test [16], the system named is HeLa. Description: Induction of apoptosis in human HeLa cells assessed as nuclear fragmentation after 24 hrs by acridine orange/ethidium bromide staining based fluorescence confocal microscopic method. It is filed as functional, cell-based.
For a further test, the system named is A549. The test can be described thus: Cytotoxicity against human A549 cells assessed as reduction in cell viability after 48 hrs by MTT assay. The test is classed as functional, cell-based. The note with it: A549, 48 h.
Test [17] deals with HeLa. Description: Induction of apoptosis in human HeLa cells assessed as necrotic cells at 10 uM after 24 hrs by Annexin-V FITC/propidium iodide staining based flow cytometry (reference value: 1.81%). The test is classed as functional.
Test [18] relates to HeLa. The test can be described thus: Cell cycle arrest in human HeLa cells assessed as accumulation at G1 phase at 10 uM after 24 hrs by propidium iodide staining based flow cytometry (reference value: 66.42%). It is filed as functional.
Test [19] has as its system HeLa. The test can be described thus: Induction of apoptosis in human HeLa cells assessed as ring shaped cell masses at 5 to 10 uM after 24 hrs by […] staining based fluorescence microscopic method. It is filed as functional.
Test [20] deals with HeLa. Description: Cell cycle arrest in human HeLa cells assessed as accumulation at G1 phase at 5 uM after 24 hrs by propidium iodide staining based flow cytometry (reference value: 66.42%). It is filed as functional.
Test [21] concerns HeLa. The test can be described thus: Induction of apoptosis in human HeLa cells assessed as live cells at 10 uM after 24 hrs by Annexin-V FITC/propidium iodide staining based flow cytometry (reference value: 95.5%). It is filed as functional.

In ChEMBL document CHEMBL3992482 (Medchemcomm, 2016) one finds IC50 and Activity data, which are given here for one compound.

Active and inactive are the calls of the source. The calls are words filed in the database; no cut-off is given here.

On to `CC(C)(C)c1nc(Nc2cc(C(F)(F)F)cc(C(F)(F)F)c2)sc1Cc1ccc2c(c1)OCO2`, for which the figures for the IC50 in the test on MCF7, in the test with HeLa [6] and in the test on A549 were 9.03 µM, 2.07 µM and 3.52 µM, respectively. The Activity with HeLa [1] was 17.93%; with HeLa [2], 27.1%; in the test with HeLa [3], 1.94%; in the test on HeLa [4], “Dose-dependent effect”; with HeLa [5], “Dose-dependent effect”; with HeLa [7], 16.03%. For the same compound, the Activity was determined as 2.27% in the test with HeLa [8]; 19.2% in the test with HeLa [9]; 35.93% in the test with HeLa [10]; 77.8% in the test on HeLa [12]; 62.7% in the test with HeLa [13]; 0.69% in the test on HeLa [14]. Also, the Activity entry is “Dose-dependent effect” with HeLa [15]; “Dose-dependent effect” with HeLa [16]; 0.23% in the test with HeLa [17]; 46.14% in the test on HeLa [18]; 56.87% in the test with HeLa [20]; 35.1% with HeLa [21]. Further, the result in the test with HeLa [11] and with HeLa [19] was Active.
